Columns and labels:
[1] = test system: Saccharomyces cerevisiae/URA3 strain BY4247; assay: Real-time monitoring of ajmalicine in yeast cells expressing FLIP-Ajn (confocal); type: cell-based; conditions: 10 mM ajmalicine
Procedure: Gateway-cloned pYES-DEST_ECFP_CYP2D6_Venus was transformed in Saccharomyces cerevisiae/URA3 strain BY4247. The transformed yeast cells were cultured in synthetic defined (SD) medium containing dextrose (2%) as a source of carbon and galactose (1%) for induction. The expressed yeast cells were subjected to confocal microscopic analysis with Leica TCS-SPE scan head and 63x objective lens with oil immersion system. The expressed culture was provided with 10 mM ajmalicine. Ratio of emission intensities of Venus/ECFP were recorded for 10 min and data were collected at every 20 s intervals.

[2] = test system: HEK-293T cells; assay: Real-time monitoring of ajmalicine in transfected animal cells (confocal); type: cell-based, human; conditions: 10 mM ajmalicine; 0.4 ± 0.05 at 0 s
Procedure: The HEK-293T (human embryonic kidney) cells were cultured in Dulbecco's modified Eagle's medium containing 50 μg/ml ampicillin, 10% fetal calf serum, and CO2 in an incubator shaker at 37°C. Calcium phosphate-mediated transient transfection of HEK-293T cells with pCDNA_ECFP_CYP2D6_Venus was carried out in a 6-well culture plate and was allowed to express for 2 days. Washing buffer comprised of 50 mM NaCl, 1 mM MgCl2, 5 mM KCl, 5 mM D-glucose, and 25 mM HEPES (pH 7.2–7.4). After a gap of 2 days after transfection, the cultured cells were set for imaging analysis using a confocal microscope with 1.53 numerical aperture, cooled charge-coupled camera, and 63x oil immersion objective lens. The culture was supplemented with 10 mM ajmalicine and the images were taken. Ratio of emission intensities of Venus/ECFP were recorded for 10 min. The laser setting used for the analysis was same for both yeast and animal cells. Data were collected after an interval of 20 s and the exposure time set for acquiring images was 300 ms.

[3] = test system: Catharanthus roseus cells; assay: FRET ratio in transformed plant suspension culture (confocal); type: cell-based; conditions: slow and consistent addition of ajmalicine to suspension culture; increased from 0.7
Procedure: Leaf explants were used in the study for initiating callus. The segments of Catharanthus roseus leaves were collected from the herbal garden of Jamia Hamdard, New Delhi. The collected explants were then washed continuously for 20 min under tap water. The explants were then treated with 0.5% cetrimide and 0.1% HgCl2 for 10 and 5 min, respectively. Further sequential washing with 70% alcohol and sterilized distilled water for 1 min were performed. The culturing of sterile explants was done on MS (Murashige and Skoog, [1962]) medium containing 0.5 μM 2,4-D, 3% sucrose, and 0.62% agar. The pH of the medium was maintained to 5.65, and the cultured tubes were kept in a culture room at 25 ± 2°C.
Agrobacterium tumefaceins strain EHA105 were transformed with pEarleyGate100_ECFP_CYP2D6_Venus, and the suspension culture was initiated after inoculating a single colony of transformed Agrobacterium strain in LB medium. The medium was supplemented with […], and […], and the culture was maintained at 28°C for 36 h. […]
Suspension culture of Catharanthus roseus transformed with pEarleyGate100_ECFP_CYP2D6_Venus was observed under a Leica confocal microscope with a 10x objective. The culture was subjected to fluorescence analysis, and the ratio of Venus/ECFP emission intensities was recorded after excitation at 430 nm. […]

[4] = test system: E. coli BL21(DE3) cells; assay: Real-time monitoring of ajmalicine in bacterial cells expressing FLIP-Ajn; type: cell-based, Escherichia coli; conditions: 10 mM ajmalicine added externally; increased from 0.2; 30 min recording
Procedure: The developed recombinant construct pRSET-B_ECFP_CYP2D6_Venus (FLIP-Ajn) was introduced in E. coli BL21(DE3) cells and grown at 37°C (150 rpm) in an incubator shaker until O.D.600 of the bacterial growth reached 0.6. The cells were then treated with 0.5 mM IPTG and kept for 24 h at 21°C with continuous shaking for the expression of the nanosensor protein. The real-time monitoring of ajmalicine in the bacterial cells was carried out by the addition of 10 mM ajmalicine to the bacterial culture placed in the multi-well plates. Ratio of emission intensities of Venus/ECFP were recorded for 30 min and data were collected at every 5 min intervals. The control experiment includes the bacterial cells without ajmalicine. The excitation filters/slits used were same as described in the previous analysis.

[5] = test system: FLIP-Ajn (ECFP_CYP2D6_Venus, human Cytochrome P450 2D6); assay: Specificity analysis of FLIP-Ajn with CYP2D6 inhibitors/substrates (FRET ratio); conditions: 10 mM compound added to FLIP-Ajn; change <0.2 regarded as insignificant
Procedure: Characterization of nanosensor was performed using microplate reader (Synergy H1, Biotek, USA). […] After spectral analysis, pH dependence, specificity, and affinity of the nanosensor were studied. […] Specificity testing of the developed nanosensor was carried out by the addition of 10 mM of various CYP2D6 inhibitors/substrates to FLIP-Ajn.

Row | FRET ratio change relative to control [5] | Compound | increased FRET ratio ([1]; Figure 8) | FRET ratio after addition of ajmalicine ([1]; increased from 0.65 within 10 min) | FRET ratio at 400 s [2] | FRET ratio after addition of ajmalicine [3] | FRET ratio after addition of ajmalicine [4]
1 |  | COC(=O)C1=CO[C@@H](C)[C@H]2CN3CCc4c([nH]c5ccccc45)[C@@H]3C[C@H]12 [ajmalicine] | ~ 1 | 1.61 | 0.85 ± 0.05 | 3.9 | 0.4
2 | ~ 0.14 | COC(=O)C1=CO[C@@H](C)[C@H]2Cn3ccc4c5ccccc5nc-4c3C[C@H]12 [serpentine] |  |  |  |  | 
